Assay results from patent US12570673B2, “c-Myc protein inhibitor, and preparation method therefor and use thereof” (SUZHOU KINTOR PHARMACEUTICALS, INC., priority 2019, dated 2026).

What follows are compounds tested on HL60 cells (assay: Anti-cancer activity test, MTT, HL60 cells). Conditions: Homo sapiens, HL-60, culturing for 72 hours.
Format: cell-based
Experimental: Cell culture medium: Roswell medium RPMI-1640 (+L-glutamine) was added with 10% fetal bovine serum, with 100 units penicillin and 100 μg streptomycin per ml.
Cell culture conditions: 5% CO2, 95% humidity, cultured at 37° C. constant temperature.
2. Cell Inoculation, Drugs Dosing and Culture.
Logarithmic growth phase HL-60, human chronic myeloid leukemia cells (K562), human esophageal squamous cell carcinoma cells (KYSE510), human large cell lung cancer cells (H460) were inoculated into 96-well cell culture plates, 2×10^4 cells per well. Different concentrations of active compounds (dissolved in dimethyl sulfoxide (DMSO) stock solution) were added, so that the final concentration of DMSO was 0.2%, and the control group was DMSO. Each group was repeated three times.
After culturing for 72 hours, 20 µL of thiazolyl blue (MTT) (5 mg/ml, ready for use, dissolved in 1×PBS for cell culture) was added to each well, and incubated at 37° C. for 3 hours.
The 96-well cell culture plates were centrifuged at 1000 rpm for 10 minutes. The supernatant was discarded; 200 μL of DMSO was added to each well and the plate was shaken for 5 minutes.
The absorbance of each well was detected at 570 nm wavelength with a microplate reader, and the IC50 of the compounds was calculated.

Row | SMILES | IC50 [nM]
1 | CC(C)C[C@H](NC(=O)[C@H](C)NC(=O)c1cccc2c1C(=O)N(C1CCC(=O)NC1=O)C2=O)B1O[C@@H]2C[C@@H]3C[C@@H](C3(C)C)[C@]2(C)O1 (stereo partly shown) [Compound A54] | 2000 to 10000
2 | CC(C)C[C@H](NC(=O)[C@H](CC(C)C)NC(=O)CN(c1ccccc1)c1ccccc1)B1O[C@@H]2C[C@@H]3C[C@@H](C3(C)C)[C@]2(C)O1 [Compound A55] | 500 to 2000
3 | CC(C)C[C@H](NC(=O)[C@H](CC(C)C)NC(=O)Cn1c2ccccc2c2cccnc21)B1O[C@@H]2C[C@@H]3C[C@@H](C3(C)C)[C@]2(C)O1 [Compound A56] | 500 to 2000
4 | COc1ccc2c3ccccc3n(CC(=O)N[C@@H](CC(C)C)C(=O)N[C@@H](CC(C)C)B3O[C@@H]4C[C@@H]5C[C@@H](C5(C)C)[C@]4(C)O3)c2c1 [Compound A57] | 500 to 2000
5 | CC(C)C[C@H](NC(=O)[C@H](CC(C)C)NC(=O)Cn1c2ccc(Cl)cc2c2cc(Cl)ccc21)B1O[C@@H]2C[C@@H]3C[C@@H](C3(C)C)[C@]2(C)O1 [Compound A59] | 500 to 2000
6 | CC(C)C[C@H](NC(=O)[C@H](CC(C)C)NC(=O)Cn1c2ccccc2c2cc(F)ccc21)B1O[C@@H]2C[C@@H]3C[C@@H](C3(C)C)[C@]2(C)O1 [Compound A60] | 500 to 2000
7 | CC(C)C[C@H](NC(=O)[C@H](CC(C)C)NC(=O)Cn1c2ncccc2c2cccnc21)B1O[C@@H]2C[C@@H]3C[C@@H](C3(C)C)[C@]2(C)O1 [Compound A64] | 500 to 2000
8 | CC(C)C[C@H](NC(=O)[C@H](Cc1c[nH]c2ccccc12)NC(=O)c1ccncc1)B(O)O [Compound A72] | 500 to 2000
9 | CC(C)C[C@H](NC(=O)[C@H](Cc1c[nH]c2ccccc12)NCc1ccccc1)B(O)O [Compound A79] | 100 to 500
10 | CC(C)C[C@H](NC(=O)[C@H](CC(N)=O)NC(=O)CC1c2ccccc2-c2ccccc21)B(O)O [Compound A81] | 100 to 500
11 | CC(C)C[C@H](NC(=O)OCC1c2ccccc2-c2ccccc21)C(=O)N1CCC[C@H]1B(O)O [Compound A82] | 2000 to 10000
12 | CC(C)C[C@H](NC(=O)[C@H](CC(C)C)N(C)C(=O)OCC1c2ccccc2-c2ccccc21)B(O)O [Compound A83] | 2000 to 10000
13 | CC(C)C[C@H](NC(=O)[C@@H](C)NC(=O)OCC1c2ccccc2-c2ccccc21)B(O)O [Compound A85] | 100 to 500
14 | CC(C)C[C@H](NC(=O)[C@H](CC(=O)NC(c1ccccc1)(c1ccccc1)c1ccccc1)NC(=O)OCC1c2ccccc2-c2ccccc21)B(O)O [Compound A89] | 100 to 500
15 | CC(C)C[C@H](NC(=O)[C@H](C)NC(=O)c1ccc2c(c1)C(=O)N(C1CCC(=O)NC1=O)C2=O)B(O)O (stereo partly shown) [Compound A90] | 2000 to 10000
16 | CC(C)C[C@H](NC(=O)[C@H](C)NC(=O)c1cccc2c1C(=O)N(C1CCC(=O)NC1=O)C2=O)B(O)O (stereo partly shown) [Compound A91] | 2000 to 10000

Row | SMILES | IC50 [nM]
17 | CC(C)C[C@H](NC(=O)[C@H](CC(C)C)NC(=O)Cn1c2ccccc2c2ccncc21)B(O)O [Compound A92] | 100 to 500
18 | CC(C)C[C@H](NC(=O)[C@H](CC(C)C)NC(=O)CN(c1ccccc1)c1ccccc1)B(O)O [Compound A93] | 500 to 2000
19 | CC(C)C[C@H](NC(=O)[C@H](CC(C)C)NC(=O)Cn1c2ccccc2c2cccnc21)B(O)O [Compound A94] | 500 to 2000
20 | COc1ccc2c3ccccc3n(CC(=O)N[C@@H](CC(C)C)C(=O)N[C@@H](CC(C)C)B(O)O)c2c1 [Compound A95] | 500 to 2000
21 | CC(C)C[C@H](NC(=O)[C@H](CC(C)C)NC(=O)Cn1c2ccccc2c2cnccc21)B(O)O [Compound A96] | 100 to 500
22 | CC(C)C[C@H](NC(=O)[C@H](CC(C)C)NC(=O)Cn1c2ccc(Cl)cc2c2cc(Cl)ccc21)B(O)O [Compound A97] | 500 to 2000
23 | CC(C)C[C@H](NC(=O)[C@H](CC(C)C)NC(=O)Cn1c2ccccc2c2cc(F)ccc21)B(O)O [Compound A98] | 500 to 2000
24 | CC(C)C[C@H](NC(=O)[C@H](CC(C)C)NC(=O)Cn1c2ccccc2c2ccc(Cl)cc21)B(O)O [Compound A99] | 100 to 500
25 | CC(C)C[C@H](NC(=O)[C@H](CC(C)C)NC(=O)Cn1c2cc(Cl)ccc2c2ccc(Cl)cc21)B(O)O [Compound A100] | 500 to 2000
26 | CC(C)C[C@H](NC(=O)[C@H](CC(C)C)NC(=O)Cn1c2ccccc2c2ccc(C#N)cc21)B(O)O [Compound A101] | 100 to 500
27 | CC(C)C[C@H](NC(=O)[C@H](CC(C)C)NC(=O)Cn1c2ccccc2c2ccc(Br)cc21)B(O)O [Compound A102] | 100 to 500
28 | CC(C)C[C@H](NC(=O)[C@H](CC(C)C)NC(=O)Cn1c2ccccc2c2ccc(F)cc21)B(O)O [Compound A103] | 500 to 2000
29 | CC(C)C[C@H](NC(=O)[C@H](CC(C)C)NC(=O)Cn1c2ccccc2c2ncccc21)B(O)O [Compound A104] | 100 to 500
30 | CC(C)C[C@H](NC(=O)[C@H](CC(C)C)NC(=O)Cn1c2ccccc2c2ccc(OCc3ccccc3)cc21)B(O)O [Compound A105] | 100 to 500
31 | CC(C)C[C@H](NC(=O)[C@H](CC(C)C)NC(=O)Cn1c2ccccc2c2ccc(O)cc21)B(O)O [Compound A106] | 100 to 500
32 | CC(C)C[C@H](NC(=O)[C@H](CC(C)C)NC(=O)Cn1c2ncccc2c2cccnc21)B(O)O [Compound A107] | 500 to 2000

The remaining lines, values ahead:

Row | IC50 [nM] | SMILES
33 | 100 to 500 | CC(C)C[C@H](NC(=O)[C@H](CC(C)C)NC(=O)Cn1c2ccccc2c2cnccc21)B1O[C@@H]2C[C@@H]3C[C@@H](C3(C)C)[C@]2(C)O1 [Compound A58]
34 | 100 to 500 | CC(C)C[C@H](NC(=O)[C@H](CC(C)C)NC(=O)Cn1c2ccccc2c2ccc(C#N)cc21)B1O[C@@H]2C[C@@H]3C[C@@H](C3(C)C)[C@]2(C)O1 [Compound A61]
35 | 100 to 500 | CC(C)C[C@H](NC(=O)[C@H](CC(C)C)NC(=O)Cn1c2ccccc2c2ccc(Br)cc21)B1O[C@@H]2C[C@@H]3C[C@@H](C3(C)C)[C@]2(C)O1 [Compound A62]
36 | 100 to 500 | CC(C)C[C@H](NC(=O)[C@H](CC(C)C)NC(=O)Cn1c2ccccc2c2ncccc21)B1O[C@@H]2C[C@@H]3C[C@@H](C3(C)C)[C@]2(C)O1 [Compound A63]
37 | < 100 | CC(C)C[C@H](NC(=O)[C@H](CC(C)C)NC(=O)OCC1c2ccccc2-c2ccccc21)B(O)O [Compound A65]
38 | < 100 | CC(C)C[C@H](NC(=O)[C@H](Cc1c[nH]c2ccccc12)NC(=O)OCc1ccccc1)B(O)O [Compound A66]
39 | 100 to 500 | CC(C)C[C@H](NC(=O)[C@H](Cc1c[nH]c2ccccc12)NC(=O)CC12CC3CC(CC(C3)C1)C2)B(O)O [Compound A68]
40 | < 100 | CC(C)C[C@H](NC(=O)[C@H](Cc1c[nH]c2ccccc12)NC(=O)CC1CC1)B(O)O [Compound A70]
41 | < 100 | CC(C)C[C@H](NC(=O)[C@H](Cc1c[nH]c2ccccc12)NS(=O)(=O)Cc1ccccc1)B(O)O [Compound A71]
42 | < 100 | CC(C)C[C@H](NC(=O)[C@H](Cc1c[nH]c2ccccc12)NC(=O)c1nc2ccccc2s1)B(O)O [Compound A73]
43 | < 100 | CC(C)C[C@H](NC(=O)[C@H](Cc1c[nH]c2ccccc12)NC(=O)c1ccc2ncccc2c1)B(O)O [Compound A74]
44 | < 100 | CC(C)C[C@H](NC(=O)[C@H](Cc1c[nH]c2ccccc12)NC(=O)c1cnc2ccccc2c1)B(O)O [Compound A75]
45 | < 100 | CC(C)C[C@H](NC(=O)[C@H](Cc1c[nH]c2ccccc12)NC(=O)c1ccc2ccccc2c1)B(O)O [Compound A76]
46 | < 100 | CC(C)C[C@H](NC(=O)[C@H](Cc1c[nH]c2ccccc12)NC(=O)NC1CCCC1)B(O)O [Compound A77]
47 | < 100 | CC(C)C[C@H](NC(=O)[C@H](Cc1c[nH]c2ccccc12)NC(=O)OC1CCCC1)B(O)O [Compound A78]
48 | < 100 | COC(=O)C[C@H](NC(=O)CC1c2ccccc2-c2ccccc21)C(=O)N[C@@H](CC(C)C)B(O)O [Compound A80]
49 | < 100 | CC(C)C[C@H](NC(=O)CNC(=O)OCC1c2ccccc2-c2ccccc21)B(O)O [Compound A84]
50 | < 100 | CC(C)C[C@H](NC(=O)[C@H](C)NC(=O)OCC1c2ccccc2-c2ccccc21)B(O)O [Compound A86]
51 | < 100 | COc1ccc2cc(C(=O)N[C@@H](Cc3c[nH]c4ccccc34)C(=O)N[C@@H](CC(C)C)B(O)O)ccc2c1 [Compound A87]
52 | < 100 | CC(C)C[C@H](NC(=O)[C@H](Cc1c[nH]c2ccccc12)NC(=O)c1ccc2cc(N)ccc2c1)B(O)O [Compound A88]
